This data set concerns ERG 1-2 molecule. Put plainly: Cell differentiation marker ERG 1-2 in HaCat keratinocytes, immunofluorescence. To be noted: HaCat human keratinocytes, at 24 hours. It counts as cell-based.

Where a SMILES comes first, the peptide text is derived from it.

Regarding `N=C(N)NCCC[C@H](N)C(=O)NCC(=O)N[C@@H](CO)C(=O)O` [Arg-Gly-Ser] (H-Arg-Gly-Ser-OH), the “quantity of ERG molecules present in the cells (intensity of fluorescence), cell differentiation” value is recorded as “increases the quantity of ERG molecules”.

For the origin of these results see US20080227725A1, “Cosmetic or pharmaceutical composition comprising peptides, uses and treatment processes” (priority 2002, published 2008).
